Measured values from US8455448B2, “Myostatin isoform” (Myostin Therapeutics Pty Ltd, priority 2004, dated 2013).

Experiments:
[1] = tested on: myostatin mRNA expression; experiment: Myostatin mRNA expression in C2C12 murine myoblasts (real-time PCR); type: cell-based; settings: 10 μg/ml, FIG. 14
Protocol: C2C12 myoblasts were seeded in 10 cm diameter tissue culture plates (Nunc, Roskilde, Denmark) at a cell density of 3000 cells per cm^2 in 10 ml of Dulbecco's modified Eagle's medium (DMEM, Invitrogen, California) supplemented with foetal bovine serum (FBS, 10% v/v, Invitrogen), penicillin (1×10^5 IU/I, Sigma, St Louis, Mo., USA) and streptomycin (100 mg/l, Sigma) buffered with NaHCO3 containing phenol red (7.22 nmol/l) as a pH indicator, and incubated overnight at 37° C. with 5% CO2. For a set of eight plates (chronic treatment, designated “A”) the medium was replaced with the test medium: DMEM with 2.5% FBS supplemented with 0 or 10 μg/ml oMSV47 (n=4). The plates “A” were then incubated at 37° C. with 5% CO2 for 48 hours. […] RNA was re-suspended in diethyl pyrocarbonate-treated water and the total RNA concentration determined by measuring absorbance at 260 nm (Nanodrop Spectrophotometer, Delaware, USA). […] The following experimental run protocol was used: denaturation (95° C. for 5 min), amplification (95° C. for 5 sec, 62° C. for 10 sec, 72° C. for 20 sec, with a single fluorescence measurement, 50 cycles), melt curve (60-95° C. with a heating rate of 0.1° C. per sec with continuous fluorescence measurement) on a LightCycler 2.0 PCR machine (Roche Diagnostics). Arbitrary concentrations were calculated by the Lightcycler software using a standard curve (Roche Diagnostics).

[2] = tested on: human skeletal muscle myoblasts; experiment: Proliferation assay of human primary myoblasts (methylene blue); type: cell-based; settings: 0-10 μg/ml, 96 h, FIG. 12B
Protocol: Human skeletal muscle myoblasts (Cambrex, Australia) were seeded in 96-well tissue culture plates (Nunc, Roskilde, Denmark) at a cell density of 2000 cells per well in 200 μl of Skeletal Muscle Basal Medium (Cambrex, Australia) supplemented with foetal bovine serum (FBS, 10% v/v, Cambrex, Australia), and incubated overnight at 37° C. with 5% CO2. The medium was replaced with Dulbecco's modified Eagle's medium (DMEM, Invitrogen, California) supplemented with 5% foetal bovine serum (FBS, Invitrogen, California), penicillin (1×10^5 IU/l, Sigma, St Louis, Mo., USA) and streptomycin (100 mg/l, Sigma) buffered with NaHCO3 containing phenol red (7.22 nmol/l) as a pH indicator with 0, 0.1, 1, 5 and 10 μg/ml rhMSV38 or roMSV47 protein in a semi-random arrangement of eight replicates (n=8) for each test medium. Plates were incubated at 37° C. with 5% CO2 for 96 hours, and then the medium was removed. The wells were washed with 200 μl of phosphate buffered saline (PBS, Oxoid, UK) buffer and fixed with 100 μl of 10% formaldehyde, 0.9% NaCl solution for at least one hour. The fixative was then removed and 100 μl of 1% methylene blue stain in 0.01 M borate buffer (pH 8.5) was added to each well and incubated for 30 min at room temperature. Excess stain was removed by four sequential washes in borate buffer. Methylene blue was eluted from the cells by the addition of 100 μl 1:1 (v/v) ethanol/0.1 HCl. The plates were gently shaken and the absorbance was measured at 655 nm using a microplate photometer (VersaMax, Molecular Devices, CA).
Human skeletal muscle myoblasts (Cambrex, Australia) were seeded in 96-well tissue culture plates (Nunc, Roskilde, Denmark) at a cell density of 2000 cells per well in 200 μl of Skeletal Muscle Basal Medium (Cambrex, Australia) supplemented with foetal bovine serum (FBS, 10% v/v, Cambrex, Australia), and incubated overnight at 37° C. with 5% CO2. The medium was replaced with Dulbecco's modified Eagle's medium (DMEM, Invitrogen, California) supplemented with 5% foetal bovine serum (FBS, Invitrogen, California), penicillin (1×10^5 IU/l, Sigma, St Louis, Mo., USA) and streptomycin (100 mg/l, Sigma) buffered with NaHCO3 containing phenol red (7.22 nmol/l) as a pH indicator with no added protein, 1.5 or 3.0 μg/ml recombinant bovine mature myostatin alone and with combination of 0.3, 1, 3, 10 molar ratio of rhMSV38 to myostatin, and the same amounts of rhMSV38 without myostatin in a semi-random arrangement of eight replicates (n=8) for each test medium. Plates were incubated at 37° C. with 5% CO2 for 48 hours, and then the medium was removed. […] The plates were gently shaken and the absorbance was measured at 655 nm using a microplate photometer (VersaMax, Molecular Devices, CA).

roMSV47: 47 amino acid C-terminal mature ovine MSV fragment (SEQ ID NO: 50), recombinant from E. coli (IIFLEVYIQFCSILGEAVFKRQSKSIHFCQNFKIIACLCNTAAFRMK; Ovis aries)
expression of myostatin (real-time PCR) ([1]; acutely, 6 h from 48 to 54 h): suppresses the expression of myostatin | expression of myostatin (real-time PCR) ([1]; chronically, from seeding to 48 h): suppresses the expression of myostatin | proliferation of human myoblasts [2]: able to stimulate human myoblast proliferation
